Patent US20250289785A1, “INDOLE DERIVATIVE, METHOD FOR PREPARING SAME, AND USE THEREOF” (MITOIMMUNE THERAPEUTICS INC., priority 2021, published 2025)

The compounds below were run on H9C2 cells (assay: Cell protection effect against t-BHP in heart cells (LDH release)). Conditions: H9C2, t-BHP 40 μM, 2 hours.
Type: cell-based
Experimental: In order to identify the protective effect with regard to heart cells, H9C2 cells were divided into 96-well plates by 1.5×10^4, and cultured for 24 hours. The respective wells were treated with compounds of the examples 3× serial diluted to final concentrations of […], then cultured for 15 to 20 minutes. After treating with t-BHP with a final concentration of 40 μM, culturing was performed for 2 hours. In order to identify the protective effect of each compound, a Cytotoxicity LDH assay kit [Dojindo; CK12] was used to measure the degree of extracellular secretion of LDH. To describe briefly, at the time point 2-hour treatment of the cells with t-BHIP was completed, 100 μL each of the supernatant in which the cells were placed was collected and moved to a new 96-well plate. 100 μL/well of the assay buffer included in the kit (same amount as the sample) was added, followed by wrapping with foil and reacting for 30 minutes at room temperature. Observing the change in color of the sample, 50 μL/well of stop solution was added, then an iD3 spectrometer was used to measure absorbance at 490 nm and calculate the EC50 values. The EC50 of the compounds of the examples is preferably no more than 1.0 μM, and more preferably no more than 0.3 μM.
`COCc1cc(NCC2CCOCC2)c2[nH]c(-c3ccccc3)cc2c1` [Example 3, 5-(methoxymethyl)-2-phenyl-N-(tetrahydropyran-4-ylmethyl)-1H-indol-7-amine] was tested, and the EC50 was no more than 300 nM.
`COCc1cc(NC2CCS(=O)(=O)CC2)c2[nH]c(-c3ccccc3)cc2c1` [Example 4, N-(1,1-dioxothian-4-yl)-5-(methoxymethyl)-2-phenyl-1H-indol-7-amine] showed an EC50 of no more than 300 nM.
For `COCc1cc(NC2CCN(S(C)(=O)=O)CC2)c2[nH]c(-c3ccccc3)cc2c1` [Example 5, 5-(methoxymethyl)-N-(1-methylsulfonyl-4-piperidyl)-2-phenyl-1H-indol-7-amine], the EC50 was no more than 300 nM.
In the case of `COCc1cc(NC2CCN(C(C)=O)CC2)c2[nH]c(-c3ccccc3)cc2c1` [Example 6, 1-[4-[[5-(methoxymethyl)-2-phenyl-1H-indol-7-yl]amino]-1-piperidyl]ethanone], the EC50 is reported as no more than 300 nM.
For `COCc1cc(NC2CCC(F)(F)CC2)c2[nH]c(-c3ccccc3)cc2c1` [Example 7, N-(4,4-difluorocyclohexyl)-5-(methoxymethyl)-2-phenyl-1H-indol-7-amine], the EC50 was no more than 300 nM.
Compound `COCc1cc(NCc2ccccc2)c2[nH]c(-c3ccccc3)cc2c1` [Example 8, N-benzyl-5-(methoxymethyl)-2-phenyl-1H-indol-7-amine] has an EC50 of no more than 300 nM.
`COCc1cc(NC2CCN(C(=O)OC(C)(C)C)CC2)c2[nH]c(-c3ccccc3)cc2c1` [Example 9, tert-butyl 4-[[5-(methoxymethyl)-2-phenyl-1H-indol-7-yl]amino]-piperidine-1-carboxylate] gave an EC50 of no more than 300 nM.
Work on `COCc1cc(NC(C)C)c2[nH]c(-c3ccccc3)cc2c1` [Example 10, N-isopropyl-5-(methoxymethyl)-2-phenyl-1H-indol-7-amine] yielded an EC50 of no more than 300 nM.
`COCc1cc(NC2CCN(C)CC2)c2[nH]c(-c3ccccc3)cc2c1` [Example 11, 5-(methoxymethyl)-N-(1-methyl-4-piperidyl)-2-phenyl-1H-indol-7-amine] was tested, and the EC50 was no more than 300 nM.
Compound `COCCNc1cc(COC)cc2cc(-c3ccccc3)[nH]c12` [Example 12, N-(2-methoxyethyl)-5-(methoxymethyl)-2-phenyl-1H-indol-7-amine] has an EC50 of no more than 300 nM.
Compound `COCCCNc1cc(COC)cc2cc(-c3ccccc3)[nH]c12` [Example 13, 5-(methoxymethyl)-N-(3-methoxypropyl)-2-phenyl-1H-indol-7-amine] has an EC50 of no more than 300 nM.
`CC(C)(C)OCc1cc(NC2CCOCC2)c2[nH]c(-c3ccccc3)cc2c1` [Example 15, 5-(tert-butoxymethyl)-2-phenyl-N-tetrahydropyran-4-yl-1H-indol-7-amine] gave an EC50 of no more than 300 nM.
`CC(C)(C)OCc1cc(NC2CCCC2)c2[nH]c(-c3ccccc3)cc2c1` [Example 16, 5-(tert-butoxymethyl)-N-cyclopentyl-2-phenyl-1H-indol-7-amine] showed an EC50 of no more than 300 nM.
`CC(C)(C)OCc1cc(N(C2CCCC2)C2CCCC2)c2[nH]c(-c3ccccc3)cc2c1` [Example 17, 5-(tert-butoxymethyl)-N,N-dicyclopentyl-2-phenyl-1H-indol-7-amine] gave an EC50 of no more than 300 nM.
`COCc1cc(NC2CCOCC2)c2[nH]cc(-c3ccccc3)c2c1` [Example 18, 5-(methoxymethyl)-3-phenyl-N-tetrahydropyran-4-yl-1H-indol-7-amine] was tested, and the EC50 was no more than 300 nM.
With `CCOCc1cc(NC2CCOCC2)c2[nH]c(-c3ccccc3)cc2c1` [Example 20, 5-(ethoxymethyl)-2-phenyl-N-(tetrahydro-2H-pyran-4-yl)-1H-indol-7-amine] the EC50 was no more than 300 nM.
`CC(C)OCc1cc(NC2CCCC2)c2[nH]c(-c3ccccc3)cc2c1` [Example 21, N-cyclopentyl-5-(isopropoxymethyl)-2-phenyl-1H-indol-7-amine] was tested, and the EC50 was no more than 300 nM.
With `CC(C)OCc1cc(NC2CCOCC2)c2[nH]c(-c3ccccc3)cc2c1` [Example 22, 5-(isopropoxymethyl)-2-phenyl-N-(tetrahydro-2H-pyran-4-yl)-1H-indol-7-amine] the EC50 was no more than 300 nM.
For `CCOCc1cc(NC2CCCC2)c2[nH]c(-c3ccccc3)c(C#N)c2c1` [Example 23, 7-(cyclopentylamino)-5-(ethoxymethyl)-2-phenyl-1H-indole-3-carbonitrile], the EC50 was no more than 300 nM.
Work on `CCOCc1cc(NC2CCOCC2)c2[nH]c(-c3ccccc3)c(C#N)c2c1` [Example 24, 5-(ethoxymethyl)-2-phenyl-7-((tetrahydro-2H-pyran-4-yl)amino)-1H-indole-3-carbonitrile] yielded an EC50 of 300 to 1000 nM.
With `CCOCc1cc(NC2CCCC2)c2[nH]c(-c3ccccc3)c(/C=N/OC)c2c1` [Example 25, (E)-7-(cyclopentylamino)-5-(ethoxymethyl)-2-phenyl-1H-indole-3-carbaldehyde O-methyl oxime] the EC50 was no more than 300 nM.
`CCOCc1cc(N(C2CCOCC2)C2CCOCC2)c2[nH]c(-c3ccccc3)c(/C=N/OC)c2c1` [Example 26, (E)-7-(bis(tetrahydro-2H-pyran-4-yl)amino)-5-(ethoxymethyl)-2-phenyl-1H-indole-3-carbaldehyde O-methyl Oxime] was tested, and the EC50 was greater than 1000 nM.
`CCOCc1cc(NC2CCOCC2)c2[nH]c(-c3ccccc3)c(/C=N/OC)c2c1` [Example 27] gave an EC50 of no more than 300 nM.
`CCOCc1cc(NC2CCCC2)c2c(c1)c(COC)c(-c1ccccc1)n2C` [Example 28, N-cyclopentyl-5-(ethoxymethyl)-3-(methoxymethyl)-1-methyl-2-phenyl-1H-indol-7-amine] gave an EC50 of 300 to 1000 nM.
In the case of `CCOCc1cc(NC2CCCC2)c2[nH]c(-c3ccccc3)c(/C=C/C(=O)OC)c2c1` [Example 30, methyl (E)-3-(7-(cyclopentylamino)-5-(ethoxymethyl)-2-phenyl-1H-indol-3-yl)acrylate], the EC50 is reported as no more than 300 nM.
Work on `CCOCc1cc(NC2CCOCC2)c2[nH]c(-c3ccccc3)c(/C=C/C(=O)OC)c2c1` [Example 31, Methyl (E)-3-(5-(ethoxymethyl)-2-phenyl-7-((tetrahydro-2H-pyran-4-yl)amino)-1H-indole-3-yl)acrylate] yielded an EC50 of no more than 300 nM.
Work on `CCOCc1cc(NC2CCCC2)c2[nH]c(-c3ccccc3)c(C(=O)C(F)(F)F)c2c1` [Example 32, 1-(7-(cyclopentylamino)-5-(ethoxymethyl)-2-phenyl-1H-indol-3-yl)-2,2,2-trifluoroethan-1-one] yielded an EC50 of no more than 300 nM.
Work on `CCOCc1cc(NC2CCOCC2)c2[nH]c(-c3ccccc3)c(C(=O)C(F)(F)F)c2c1` [Example 33, 1-(5-(ethoxymethyl)-2-phenyl-7-((tetrahydro-2H-pyran-4-yl)amino)-1H-indol-3-yl)-2,2,2-trifluoro-1-one] yielded an EC50 of 300 to 1000 nM.
In the case of `CCOCc1cc(NC2CCCC2)c2[nH]c(-c3ccccc3)c(/C=C/C(=O)c3ccccc3)c2c1` [Example 34, (E)-3-(7-(cyclopentylamino)-5-(ethoxymethyl)-2-phenyl-1H-indol-3-yl)-1-phenylpropan-2-ene-1-one], the EC50 is reported as no more than 300 nM.
With `CCOCc1cc(NC2CCOCC2)c2[nH]c(-c3ccccc3)c(/C=C/C(=O)c3ccccc3)c2c1` [Example 35, (E)-3-(5-(ethoxymethyl)-2-phenyl-7-((tetrahydro-2H-pyran-4-yl)amino)-1H-indol-3-yl)-1-phenylpropan-2-en-1-one] the EC50 was no more than 300 nM.
For `CCOCc1cc(NC2CCCC2)c2[nH]c(-c3ccccc3)c(C(O)C(F)(F)F)c2c1` (stereo not shown) [Example 36, 1-(7-(cyclopentylamino)-5-(ethoxymethyl)-2-phenyl-1H-indol-3-yl)-2,2,2-trifluoroethan-1-ol], the EC50 was no more than 300 nM.
